ChEMBL document CHEMBL3407491, “Synthesis, characterization and in vitro photodynamic antimicrobial activity of basic amino acid-porphyrin conjugates” (Eur J Med Chem, 2015)
Converted amounts (≈) assume the structure as drawn. The source made the active and inactive calls. No cut-off for these calls is given here.

Tests used:
[1] = test system: Pseudomonas aeruginosa; experiment: Antibacterial activity against Pseudomonas aeruginosa ATCC 27853 incubated in dark for 30 mins followed by exposure to light fluences at 650 nm and 6 J/cm2 and then incubated overnight measured after 24 hrs; assay type: functional; settings: ATCC 27853, light or radiation study
[2] = Toxicity against human […] cells assessed as reduction in cell viability by MTT assay; assay type: cell-based
[3] = test system: Staphylococcus aureus; experiment: Antibacterial activity against methicillin-resistant Staphylococcus aureus incubated in dark for 30 mins followed by exposure to light fluences at 650 nm and 6 J/cm2 and then incubated overnight measured after 24 hrs; assay type: functional; settings: light or radiation study
[4] = test system: Staphylococcus aureus; experiment: Antibacterial activity against methicillin-resistant Staphylococcus aureus assessed as log reduction in bacterial count at 2 uM incubated in dark for 30 mins followed by exposure to light fluences at 650 nm and 6 J/cm2 and then incubated overnight measured after 24 hrs; assay type: functional
[5] = test system: Pseudomonas aeruginosa; experiment: Drug uptake in Pseudomonas aeruginosa ATCC 27853 at 12.5 uM by confocal laser scanning microscopy; assay type: ADME, organism-based; settings: in vivo
[6] = test system: Staphylococcus aureus; experiment: Antibacterial activity against methicillin-resistant Staphylococcus aureus incubated in dark for 30 mins measured after 24 hrs; assay type: functional
[7] = test system: Staphylococcus aureus; experiment: Bactericidal activity against methicillin-resistant Staphylococcus aureus incubated in dark for 30 mins followed by exposure to light fluences at 650 nm and 6 J/cm2 and then incubated overnight followed by further incubation on LB agar plates for another 24 hrs; assay type: functional; settings: light or radiation study
[8] = Stability in mouse serum assessed as compound remaining after 24 hrs by RP-HPLC method; assay type: ADME; settings: read-out: Stability
[9] = test system: Escherichia coli; experiment: Antibacterial activity against Escherichia coli ATCC 25922 incubated in dark for 30 mins and grown for 24 hrs followed by further incubation on LB agar plates for another 24 hrs; assay type: functional
[10] = test system: Escherichia coli; experiment: Antibacterial activity against Escherichia coli ATCC 25922 assessed as log reduction in bacterial count at 7.81 uM incubated in dark for 30 mins followed by exposure to light fluences at 650 nm and 6 J/cm2 and then incubated overnight measured after 24 hrs; assay type: functional, organism-based
[11] = test system: Pseudomonas aeruginosa; experiment: Antibacterial activity against Pseudomonas aeruginosa ATCC 27853 incubated in dark for 30 mins and grown for 24 hrs followed by further incubation on LB agar plates for another 24 hrs; assay type: functional
[12] = test system: Staphylococcus aureus; experiment: Antibacterial activity against methicillin-resistant Staphylococcus aureus incubated in dark for 30 mins and grown for 24 hrs followed by further incubation on LB agar plates for another 24 hrs; assay type: functional
[13] = test system: Pseudomonas aeruginosa; experiment: Antibacterial activity against Pseudomonas aeruginosa ATCC 27853 assessed as log reduction in bacterial count at 3.5 uM incubated in dark for 30 mins followed by exposure to light fluences at 650 nm and 6 J/cm2 and then incubated overnight measured after 24 hrs; assay type: functional
[14] = test system: Staphylococcus aureus; experiment: Drug uptake in methicillin-resistant Staphylococcus aureus at 12.5 uM by confocal laser scanning microscopy; assay type: ADME, organism-based; settings: in vivo
[15] = test system: Escherichia coli; experiment: Antibacterial activity against Escherichia coli ATCC 25922 at 3.91 uM to 62.50 uM incubated in dark for 30 mins followed by exposure to light fluences at 650 nm and 6 J/cm2 and then incubated overnight measured after 24 hrs; assay type: functional, organism-based
[16] = Toxicity against human […] cells assessed as cell viability at 3.91 to 62.5 uM under dark conditions by MTT assay; assay type: cell-based; settings: read-out: Activity
[17] = test system: Escherichia coli; experiment: Drug uptake in Escherichia coli ATCC 25922 at 12.5 uM by confocal laser scanning microscopy; assay type: ADME, organism-based; settings: in vivo
[18] = test system: Staphylococcus aureus; experiment: Antibacterial activity against methicillin-resistant Staphylococcus aureus at 0.49 uM to 7.8 uM incubated in dark for 30 mins followed by exposure to light fluences at 650 nm and 6 J/cm2 and then incubated overnight measured after 24 hrs; assay type: functional, organism-based
[19] = test system: Pseudomonas aeruginosa; experiment: Antibacterial activity against Pseudomonas aeruginosa ATCC 27853 at 3.91 uM to 62.50 uM incubated in dark for 30 mins followed by exposure to light fluences at 650 nm and 6 J/cm2 and then incubated overnight measured after 24 hrs; assay type: functional, organism-based
[20] = test system: Escherichia coli; experiment: Bactericidal activity against Escherichia coli ATCC 25922 incubated in dark for 30 mins followed by exposure to light fluences at 650 nm and 6 J/cm2 and then incubated overnight followed by further incubation on LB agar plates for another 24 hrs; assay type: functional; settings: ATCC 25922, light or radiation study
[21] = test system: Escherichia coli; experiment: Antibacterial activity against Escherichia coli ATCC 25922 assessed as log reduction in bacterial count at 2 uM incubated in dark for 30 mins followed by exposure to light fluences at 650 nm and 6 J/cm2 and then incubated overnight measured after 24 hrs; assay type: functional
[22] = test system: Pseudomonas aeruginosa; experiment: Bactericidal activity against Pseudomonas aeruginosa ATCC 27853 incubated in dark for 30 mins followed by exposure to light fluences at 650 nm and 6 J/cm2 and then incubated overnight followed by further incubation on LB agar plates for another 24 hrs; assay type: functional; settings: ATCC 27853, light or radiation study
[23] = test system: Pseudomonas aeruginosa; experiment: Antibacterial activity against Pseudomonas aeruginosa ATCC 27853 incubated in dark for 30 mins measured after 24 hrs; assay type: functional
[24] = Singlet oxygen generation of the compound exposed to 4.2 mW/cm2 light energy density assessed as singlet oxygen quantum yield measured at 410 nm in 10 seconds intervals of irradiation at 0.2 uM by DPBF scavenger based assay
[25] = test system: Escherichia coli; experiment: Antibacterial activity against Escherichia coli ATCC 25922 incubated in dark for 30 mins measured after 24 hrs; assay type: functional
[26] = test system: Pseudomonas aeruginosa; experiment: Antibacterial activity against Pseudomonas aeruginosa ATCC 27853 at 0.49 uM to 7.8 uM incubated in dark for 30 mins followed by exposure to light fluences at 650 nm and 6 J/cm2 and then incubated overnight measured after 24 hrs; assay type: functional, organism-based
[27] = Photostability at 2 x 10^-5 mol/L exposed to 4.2 mW/cm2 light energy density assessed as change in absorption spectra after 30 mins post irradiation; assay type: physicochemical; settings: 0.5 h, 20 µM
[28] = Toxicity against human […] cells irradiated with 6 J/cm2 radiation assessed as cell viability at 7.81 uM by MTT assay; assay type: cell-based; settings: read-out: Activity
[29] = test system: Escherichia coli; experiment: Antibacterial activity against Escherichia coli ATCC 25922 at 0.49 uM to 7.8 uM incubated in dark for 30 mins followed by exposure to light fluences at 650 nm and 6 J/cm2 and then incubated overnight measured after 24 hrs; assay type: functional, organism-based
[30] = Octanol water partition coefficient, log P of the compound by reverse-phase thin-layer chromatography; assay type: physicochemical
[31] = test system: Pseudomonas aeruginosa; experiment: Antibacterial activity against Pseudomonas aeruginosa ATCC 27853 assessed as log reduction in bacterial count at 7.81 uM incubated in dark for 30 mins followed by exposure to light fluences at 650 nm and 6 J/cm2 and then incubated overnight measured after 24 hrs; assay type: functional, organism-based
[32] = test system: Escherichia coli; experiment: Antibacterial activity against Escherichia coli ATCC 25922 incubated in dark for 30 mins followed by exposure to light fluences at 650 nm and 6 J/cm2 and then incubated overnight measured after 24 hrs; assay type: functional; settings: ATCC 25922, light or radiation study

With `NCCCC[C@H](N)C(=O)Nc1ccc(-c2c3nc(c(-c4ccc(NC(=O)[C@@H](N)CCCCN)cc4)c4ccc([nH]4)c(-c4ccc(NC(=O)[C@@H](N)CCCCN)cc4)c4nc(c(-c5ccc(NC(=O)[C@@H](N)CCCCN)cc5)c5ccc2[nH]5)C=C4)C=C3)cc1` the MIC [1] was 7.81 µM (≈ 9.27 µg/mL), the Activity [2] was “Dose-dependent effect” and the MIC [3] was 3.91 µM (≈ 4.64 µg/mL). The FC [4] was 3, the Drug uptake [5] was “Active” and the MIC [6] was 62.5 µM (≈ 74.2 µg/mL). For the same molecule, the MBC [7] was 7.81 µM (≈ 9.27 µg/mL), the remaining at 24 h [8] was 85% and the MBC [9] was 125 µM (≈ 148 µg/mL). The Activity [10] was “Active”, the MBC [11] was > 500 µM and the MBC [12] was 125 µM (≈ 148 µg/mL). The FC [13] was 3, the Drug uptake [14] was “Active” and the Activity [15] was “Dose-dependent effect”. The viability at 62.5 µM [16] was > 90%, the Drug uptake [17] was “Active” and the Activity [18] was “Dose-dependent effect”. The Activity [19] was “Dose-dependent effect”, the MBC [20] was 3.91 µM (≈ 4.64 µg/mL) and the FC [21] was 3. The MBC [22] was 15.6 µM (≈ 18.5 µg/mL), the MIC [23] was 250 µM (≈ 297 µg/mL) and the Activity [24] was 0.95. The MIC [25] was 62.5 µM (≈ 74.2 µg/mL), the Activity [26] was “Dose-dependent effect” and the Activity [27] was < 20%. For the same molecule, the viability at 7.81 µM [28] was > 85%, the Activity [29] was “Dose-dependent effect” and the logP [30] was 0.9. For the same molecule, the Activity [31] was “Active” and the MIC [32] was 1.95 µM (≈ 2.32 µg/mL).
